System: cats
Assay: two-bowl preference test, Example 7 (Feline w/d)
Type: in vivo, cat
Settings: dry wt. of kibble
Description: Finally, a commercial dry palatant enhancer (1.4% dry weight basis) was topically applied to the dry kibbles to complete the test composition.

[1] = Exp. No. 1, second set of experiments, 5 ppm
[2] = Exp. No. 2, second set of experiments, 20 ppm

In the case of CCC1OC(C)=C(O)C1=O (stereo not shown) [5-methyl-2-ethyl-4-hydroxy-3(2H)-furanone], the “Intake Ratio” value (Exp. No. 1, 5 ppm) is reported as 0.8254, the “Preference (%) control composition” value (Exp. No. 1, 5 ppm) is reported as 12.0% and the “Preference (%) test composition” value (Exp. No. 1, 5 ppm) is reported as 88.0%. For the same molecule, the “Status (vs. control)” value (Exp. No. 1, 5 ppm) was “Win”, the “Intake Ratio” value [1] was 0.7476 and the “Preference (%) control composition” value [1] was 21.7%. The “Preference (%) test composition” value [1] was 78.3%, the “Status (vs. control)” value [1] was “Win” and the “Intake Ratio” value (Exp. No. 2, 20 ppm) was 0.9731. The “Preference (%) control composition” value (Exp. No. 2, 20 ppm) was 0.0%, the “Preference (%) test composition” value (Exp. No. 2, 20 ppm) was 100.0% and the “Status (vs. control)” value (Exp. No. 2, 20 ppm) was “Win”. For the same molecule, the “Intake Ratio” value [2] was 0.8679, the “Preference (%) control composition” value [2] was 8.0% and the “Preference (%) test composition” value [2] was 92.0%. The “Status (vs. control)” value [2] was “Win”.

Reference: US20050142169A1, “Palatability enhanced composition and method for animal consumption” (priority 2003, published 2005)
